The source made the active and inactive calls. No cut-off for these calls is given here.
How the values were obtained:
[1] = target: Lysine-specific histone demethylase 1A (Homo sapiens, UniProt O60341)
Description: Inhibition of recombinant human LSD1 expressed in Escherichia coli BL21(DE3) using H3K4me2 as substrate by fluorescence assay

[2] = target: T1, Amine oxidase [flavin-containing] B (Homo sapiens, UniProt P27338)
T1 sequence (P27338 whole entry): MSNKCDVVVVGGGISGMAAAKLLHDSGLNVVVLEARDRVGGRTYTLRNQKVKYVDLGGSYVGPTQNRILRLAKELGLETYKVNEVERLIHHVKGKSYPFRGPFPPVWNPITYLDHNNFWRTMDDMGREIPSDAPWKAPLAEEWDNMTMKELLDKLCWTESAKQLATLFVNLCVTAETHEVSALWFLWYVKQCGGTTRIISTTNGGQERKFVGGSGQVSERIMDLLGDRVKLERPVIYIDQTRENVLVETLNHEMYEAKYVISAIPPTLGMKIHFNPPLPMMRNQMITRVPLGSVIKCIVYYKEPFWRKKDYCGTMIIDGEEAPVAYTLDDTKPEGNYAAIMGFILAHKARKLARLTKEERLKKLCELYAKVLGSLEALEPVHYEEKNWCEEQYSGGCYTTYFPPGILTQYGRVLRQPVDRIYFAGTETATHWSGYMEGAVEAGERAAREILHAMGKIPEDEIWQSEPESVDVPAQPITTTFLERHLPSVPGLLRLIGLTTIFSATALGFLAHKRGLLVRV
Description: Inhibition of MAO-B (unknown origin)

[3] = target: T2, Amine oxidase [flavin-containing] A (Homo sapiens, UniProt P21397)
T2 sequence (P21397 whole entry): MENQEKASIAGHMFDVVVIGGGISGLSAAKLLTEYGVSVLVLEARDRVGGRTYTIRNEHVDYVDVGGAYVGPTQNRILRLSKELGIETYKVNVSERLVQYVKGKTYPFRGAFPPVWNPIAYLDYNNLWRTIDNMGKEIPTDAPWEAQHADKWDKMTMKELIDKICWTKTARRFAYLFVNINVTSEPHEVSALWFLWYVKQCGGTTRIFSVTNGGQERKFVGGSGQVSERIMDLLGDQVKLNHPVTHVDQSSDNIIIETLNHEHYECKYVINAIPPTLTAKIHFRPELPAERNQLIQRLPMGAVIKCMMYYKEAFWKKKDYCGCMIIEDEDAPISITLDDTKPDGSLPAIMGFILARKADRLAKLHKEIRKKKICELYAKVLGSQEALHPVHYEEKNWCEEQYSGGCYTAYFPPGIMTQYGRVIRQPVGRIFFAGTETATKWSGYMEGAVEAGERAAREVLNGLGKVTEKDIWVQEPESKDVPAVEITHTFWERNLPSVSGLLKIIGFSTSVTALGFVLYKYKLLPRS
Description: Inhibition of MAO-A (unknown origin)

[4] = system: MGC-803; assay: Effect on total H3 protein expression in human MGC803 cells at 0.1 to 0.5 uM after 48 hrs by Western blot analysis; type: functional, cell-based

Row | SMILES | IC50 [1] | further results
1 | CC(C)(C)OC(=O)N1CCN(C(=S)SCc2cn(Cc3cc(=O)oc4ccc(Cl)cc34)nn2)CC1 | > 125 µM | 
2 | CC(C)(C)OC(=O)N1CCN(C(=S)SCc2cn(Cc3cc4ccc(O)cc4oc3=O)nn2)CC1 | 103 µM | 
3 | CC(C)(C)OC(=O)N1CCN(C(=S)SCc2cn(Cc3cc(=O)oc4cc(O)ccc34)nn2)CC1 |  | IC50 [2]: > 1250 µM; IC50 [3]: > 1250 µM; Activity [4]: inactive
4 | Cc1cc(O)cc2oc(=O)cc(Cn3cc(CSC(=S)N4CCN(C(=O)OC(C)(C)C)CC4)nn3)c12 | > 125 µM | 

Further lines, with some results ahead:

Row | IC50 [1] | SMILES | further results
5 | > 125 µM | Cc1ccc2oc(=O)cc(Cn3cc(CSC(=S)N4CCN(C(=O)OC(C)(C)C)CC4)nn3)c2c1 | 
6 | > 125 µM | CC(C)(C)OC(=O)N1CCN(C(=S)SCc2cn(Cc3cc4ccccc4oc3=O)nn2)CC1 | 
